# Results taken from US20220107328A1, “METHODS OF TREATING LIVER DISEASES” (Camp4 Therapeutics Corporation, priority 2018, published 2022).
# Tests used:
# [1] = tested on: PNPLA3 mRNA; assay: qRT-PCR of PNPLA3 mRNA in human primary hepatic stellate cells; type: cell-based; settings: for Relative PNPLA3 mRNA expression: stellate cells, Table 37; for Primary Stellate cells PNPLA3 (fold change in mRNA expression): 3 μM; for Relative PNPLA3 nRNA expression in Stellate cells: 16 hours; for Relative PNPLA3 mRNA levels RQ: GSK3 inhibitors in hepatic stellate cells
# [2] = tested on: PCSK9 mRNA; assay: qRT-PCR of PCSK9 mRNA in primary hepatocytes; type: cell-based, human; settings: donor 4178, 3 μM, relative to GUSB
# [3] = tested on: COL1A1 mRNA; assay: qRT-PCR of COL1A1 mRNA in human primary hepatic stellate cells; type: cell-based; settings: for Primary Stellate cells COL1A1 (fold change in mRNA expression): 3 μM, relative to GAPDH; for Relative COL1A1 mRNA levels RQ: GSK3 inhibitors in hepatic stellate cells
# [4] = tested on: PNPLA3 mRNA; assay: qRT-PCR of PNPLA3 mRNA in compound-treated primary human hepatocytes; settings: for Primary Hepatocytes 4178 PNPLA3 (fold change in mRNA expression): donor 4178, 3 μM; for Primary Hepatocytes 4282 PNPLA3 (fold change in mRNA expression): donor 4282, 3 μM; for Relative PNLPA3 mRNA expression in HU4282 cells: Lonza HU4282 hepatocytes; for Relative PNPLA3 mRNA expression in Yecuris RMG cells: Yecuris RMG hepatocytes; for Relative PNPLA3 mRNA levels: human hepatocytes; for Relative PINPLA3 mRNA: hepatocytes
# [5] = 3.3 uM, 16 hours, relative to GUSB
# [6] = 10 uM, 16 hours, relative to GUSB
# [7] = JAK inhibitors, 10 μM, qRT-PCR, mean of three replicates ± standard deviation
# [8] = hepatic stellate cells, serial dilutions, 18 hours
compound,measurement,setting,value
c1ccc2c(-c3cnn4cc(-c5ccc(N6CCNCC6)cc5)cnc34)ccnc2c1 [LDN193189],Relative PNPLA3 mRNA expression,[1]; 0.01 uM,0.95 ± 0.09
same,Relative PNPLA3 mRNA expression,[1]; 0.1 uM,0.83 ± 0.12
same,Relative PNPLA3 mRNA expression,[1]; 1 uM,0.76 ± 0.07
same,Relative PNPLA3 mRNA expression,[1]; 10 uM,9.25
Cc1nc(-c2cn3c(n2)-c2ccc(-c4cnn(C(C)(C)C(N)=O)c4)cc2OCC3)n(C(C)C)n1 [Taselisib (GDC 0032)],Primary Hepatocytes 4178 PCSK9 (fold change in mRNA expression),[2],0.67
same,Primary Stellate cells PNPLA3 (fold change in mRNA expression),[1]; relative to GAPDH,0.77
same,Primary Stellate cells COL1A1 (fold change in mRNA expression),[3],1.32
same,Primary Hepatocytes 4178 PNPLA3 (fold change in mRNA expression),[4]; relative to GUSB,0.72
same,Primary Hepatocytes 4282 PNPLA3 (fold change in mRNA expression),[4]; relative to GUSB,0.62
N#CCNC(=O)c1ccc(-c2ccnc(Nc3ccc(N4CCOCC4=O)cc3)n2)cc1 [M21],PNPLA3 mRNA expression (in words),"[1]; stellate cells ST1 and ST8, 16 hours, relative to GAPDH","reduced PNPLA3 mRNA expression, with the most significant decrease after treatment with 3.3 μM M21"
same,Relative PNPLA3 nRNA expression in Stellate cells,"[1]; stellate cells donor ST1, 3.3 uM, relative to GAPDH",0.26 ± 0.11
same,Relative PNPLA3 nRNA expression in Stellate cells,"[1]; stellate cells donor ST1, 10 uM, relative to GAPDH",0.54 ± 0.10
same,Relative PNPLA3 nRNA expression in Stellate cells,"[1]; stellate cells donor ST8, 3.3 uM, relative to GAPDH",0.31 ± 0.01
same,Relative PNPLA3 nRNA expression in Stellate cells,"[1]; stellate cells donor ST8, 10 uM, relative to GAPDH",0.49 ± 0.05
same,Relative PNLPA3 mRNA expression in HU4282 cells,[4]; [5],0.213 ± 0.028
same,Relative PNLPA3 mRNA expression in HU4282 cells,[4]; [6],0.138 ± 0.015
same,PNPLA3 mRNA expression (in words),"[4]; Yecuris RMG and Lonza HU4282 hepatocytes, 16 hours, relative to GUSB",reduced PNPLA3 mRNA expression in a dose dependent manner
same,Relative PNPLA3 mRNA expression in Yecuris RMG cells,[4]; [5],0.910 ± 0.068
same,Relative PNPLA3 mRNA expression in Yecuris RMG cells,[4]; [6],0.165 ± 0.018
CNC(=O)c1cccc(-c2ccc3c(N4CCOC[C@@H]4C)nc(N4CCOC[C@@H]4C)nc3n2)c1 [AZD2014],Primary Hepatocytes 4178 PCSK9 (fold change in mRNA expression),[2],0.36
same,Primary Stellate cells PNPLA3 (fold change in mRNA expression),[1]; relative to GAPDH,0.56
same,Primary Stellate cells COL1A1 (fold change in mRNA expression),[3],0.55
same,Primary Hepatocytes 4178 PNPLA3 (fold change in mRNA expression),[4]; relative to GUSB,0.43
same,Primary Hepatocytes 4282 PNPLA3 (fold change in mRNA expression),[4]; relative to GUSB,0.80
Cc1cc(Nc2cc(CN3CCOCC3)c3nc(C)c(Cc4ccc(Cl)cc4F)n3n2)n[nH]1 [Gandotinib],Relative PNPLA3 mRNA levels,[4]; [7],0.76 ± 0.13
N#CC[C@H](C1CCCC1)n1cc(-c2ncnc3[nH]ccc23)cn1 [Ruxolitinib],Relative PNPLA3 mRNA levels,[4]; [7],0.89 ± 0.17
"Nc1cc(C(F)(F)F)c(-c2cc(N3CCOCC3)nc(N3CCOCC3)n2)cn1 [Buparlisib (BKN120, NVE-BKM120)]",Primary Hepatocytes 4178 PCSK9 (fold change in mRNA expression),[2],0.46
same,Primary Stellate cells PNPLA3 (fold change in mRNA expression),[1]; relative to GAPDH,0.50
same,Primary Stellate cells COL1A1 (fold change in mRNA expression),[3],0.81
same,Primary Hepatocytes 4178 PNPLA3 (fold change in mRNA expression),[4]; relative to GUSB,0.52
same,Primary Hepatocytes 4282 PNPLA3 (fold change in mRNA expression),[4]; relative to GUSB,0.60
NCCC(O)(P(=O)(O)O)P(=O)(O)O [Pamidronate],Relative PINPLA3 mRNA,[4]; 10 uM,0.2
CN1CCN(S(=O)(=O)c2ccc(-c3cnc(N)c(C(=O)Nc4cccnc4)n3)cc2)CC1 [AZD2858],Relative PNPLA3 mRNA levels RQ,[1]; 1 μM,0.48
same,Relative PNPLA3 mRNA levels RQ,[1]; 10 μM,0.72
same,PNPLA3 mRNA levels (in words),[1]; [8],modestly decreased both PNPLA3 and COL1A1 in a dose dependent manner
same,Relative COL1A1 mRNA levels RQ,[3]; 1 μM,0.83
same,Relative COL1A1 mRNA levels RQ,[3]; 10 μM,0.72
same,COL1A1 expression (in words),[3]; [8],modestly decreased both PNPLA3 and COL1A1 in a dose dependent manner
COc1cc2ncnc(Nc3ccc(O)cc3)c2cc1OC [JANEX-1],Relative PNPLA3 mRNA levels,[4]; [7],0.78 ± 0.11
COc1ccc(COc2cc3oc(=O)c4cc(C(C)O)ccc4c3cc2OC)cc1 (stereo not shown) [Palomid 529 (P529)],Primary Hepatocytes 4178 PCSK9 (fold change in mRNA expression),[2],1.05
same,Primary Stellate cells PNPLA3 (fold change in mRNA expression),[1]; relative to GAPDH,0.97
same,Primary Stellate cells COL1A1 (fold change in mRNA expression),[3],1.10
CC1(C)CN(C(=O)c2ccc(-c3cccc4nc(NC(=O)C5CC5)nn34)cc2)C1 [Solcitinib],Relative PNPLA3 mRNA levels,[4]; [7],1.10 ± 0.01
O=C(NCCCNc1nc(Nc2cccc(NC(=O)N3CCCC3)c2)ncc1I)c1cccs1 [BX795],Relative PNPLA3 mRNA levels,"[4]; TBK1 inhibitor, concentration not given",0.51±0.06
O=C(Nc1nc2cccc(-c3ccc(CN4CCS(=O)(=O)CC4)cc3)n2n1)C1CC1 [Filgotinib],Relative PNPLA3 mRNA levels,[4]; [7],1.07 ± 0.14
same,Relative PINPLA3 mRNA,[4]; 1 uM,0.781
same,Relative PINPLA3 mRNA,[4]; 10 uM,0.365
C=CC(=O)N1C[C@H](COc2nc(Nc3cnn(C)c3)nc3[nH]cc(Cl)c23)[C@@H](OC)C1 [PF-06459988],Relative PINPLA3 mRNA,[4]; 1 uM,0.965
same,Relative PINPLA3 mRNA,[4]; 10 uM,0.398
"Nc1cc(C(F)(F)F)c(-c2cc(N3CCOCC3)nc(N3CCOCC3)n2)cn1 [Buparlisib (BKM120, NVP-BKM120)]",Relative PINPLA3 mRNA,[4]; 0.1 uM,1.049
same,Relative PINPLA3 mRNA,[4]; 0.3 uM,0.729
same,Relative PINPLA3 mRNA,[4]; 1 uM,0.659
same,Relative PINPLA3 mRNA,[4]; 3 uM,0.515
Cc1cc(Nc2nc(N[C@@H](C)c3ncc(F)cn3)ncc2Cl)[nH]n1 [AZD1480],Relative PNPLA3 mRNA levels,[4]; [7],0.69 ± 0.10
same,PNPLA3 expression (in words),"[4]; validation in human hepatocytes from a second donor, qRT-PCR",efficient downregulation of PNPLA3
